The text below walks through data of US20250101063A1, “POLYPEPTIDE COMPOUND AND USE THEREOF IN TREATMENT OF ENTERITIS” (Sichuan Gooddoctor Panxi Pharmaceutical Co., Ltd., priority 2022, published 2025).

Where no end group is shown, it is not given here. [ ]: non-standard residue; d: D form. pGlu = O=C1CC[C@@H](C(=O)O)N1

The first assay concerns zebrafish model of intestinal mucosal injury. The experiment in a line: Efficacy in relieving colitis: intestinal lumen area in TNBS-treated zebrafish. It is filed as in vivo. On the set-up: key to Activity in relieving intestinal lumen dilatation: * p < 0.05; ** p < 0.01; *** p < 0.001; “−“ indicates absence of activity; “+” indicates some relief of intestinal lumen dilatation; “#” indicates that all the zebrafishes died in the experiment; “&” indicates that 13 zebrafishes died in the experiment. The following applies: 15.0 μg/mL (positive control), 2 days after TNBS, n = 10. The procedure:
Experimental animals: Wild-type AB strain zebrafishes, bred by natural pair mating. Zebrafishes aged 3 days post fertilization (3 dpf). Zebrafishes were kept in fish farming water at 28° C. (water quality: 200 mg of instant sea salt in each 1L of reverse osmosis water, with the conductivity of 450-550 μS/cm; pH of 6.5-8.5; and hardness of 50-100 mg/L CaCO3), the experimental animal use license number is: SYXK (Zhe) 2012-0171, and the breeding management met the requirements of the international AAALAC certification (certification number: 001458).
(1) Grouping: Polypeptide group: prepared into a stock solution of 20.0 mg/mL with ultrapure water and stored at −20° C.
Positive control group: prednisone, as white powder, with batch number C10016501, Shanghai Macklin Biochemical Technology Co., Ltd., stored at 4° C.; prepared into a 15.0 mg/mL stock solution with DMSO, and stored in aliquots at −20° C.
Normal control group and model control group.
(2) Experimental method: 3 dpf wild-type AB strain zebrafishes were randomly selected and placed in a 6-well plate, with 30 zebrafishes in each well (experimental group). Except for the normal control group, all other experimental groups were given TNBS in water to establish the zebrafish model of intestinal mucosal injury. After 2 days of treatment at 28° C., TNBS was removed, and polypeptide compound in water (at concentrations shown in Table 4) was given respectively, and for the positive control, prednisone was 15.0 μg/mL. A normal control group (healthy group) and a model control group (intestinal mucosal injury group) were set up at the same time. The capacity of each well (experimental group) was 3 mL. After 2 days of treatment at 28° C., 10 zebrafishes were randomly selected from each experimental group and photographed under a dissecting microscope. NIS-Elements D 3.20 advanced image processing software was used to analyze and collect data, and the intestinal lumen area of the zebrafish was analyzed. The statistical analysis results of this indicator were used to evaluate the efficacy of the samples in relieving colitis. The statistics results were expressed as mean±SE. SPSS26.0 software was used for statistical analysis, and p<0.05 indicates statistically significant difference.
The concentration gradient of the test substances set in this experimental system was 250 μg/mL, 500 μg/mL, and 1000 μg/mL. […] When the concentration of the test substance was further increased for intervention, the death phenomenon of zebrafishes was found in the group; therefore, in the subsequent rounds of activity evaluation, each test polypeptide compound was uniformly administered at 1000 μg/mL for intervention.
Regarding `C[C@]12C=CC(=O)C=C1CC[C@@H]1[C@@H]2C(=O)C[C@@]2(C)[C@H]1CC[C@]2(O)C(=O)CO` [Prednisone, prednisone, reference compound], the “Intestinal lumen area (pixels, mean ± SE)” value stood at 34929 ± 1913 pixels.

The assay is the same for the next values; noted with them: 250 μg/mL in water, 2 days after TNBS, n = 10.
KEPVPQAK [Compound 4]: the “Intestinal lumen area (pixels, mean ± SE)” value came to 48915 ± 2720 pixels.
Still for that read-out and setting: as for PRKVAAQ [Compound 5], the figure is 42960 ± 2661 pixels.

The same assay, now with this note: 500 μg/mL in water, 2 days after TNBS, n = 10.
On to KEPVPQAK [Compound 4], for which the “Intestinal lumen area (pixels, mean ± SE)” value was found to be 40432 ± 3736 pixels.
As to PRKVAAQ [Compound 5], the “Intestinal lumen area (pixels, mean ± SE)” value is recorded as 45713 ± 4481 pixels.

The same assay, now with this note: 1000 μg/mL in water, 2 days after TNBS, n = 10.
KEPVPQAK [Compound 4]: the “Intestinal lumen area (pixels, mean ± SE)” value came to 33664 ± 3758 pixels.
Turning to PRKVAAQ [Compound 5], the “Intestinal lumen area (pixels, mean ± SE)” value amounted to 33977 ± 3524 pixels.

The assay is the same for the next values; noted with them: 1000 μg/mL; significance vs model control group of the same batch.
For KEPVPQAK [Compound 4], the “Activity in relieving intestinal lumen dilatation” value (shortened to “Activity”) is given as “* (* p < 0.05)”.
As to KEPIPQAKPRKVAAQ [Compound 106], the “Activity” value is “** (** p < 0.01)”.
Consider KEPVPQAKPRKVA[dA]Q [Compound 74], for which the “Activity” value is reported as “+”.
As for EAVPQAK [Compound 53], the “Activity” value was “* (* p < 0.05)”.
“Lys-Glu-Pro-Val (KEPV; printed: Lys-Glu-Pro-Val) [Compound 7]”: the “Activity” value was “+”.
As to KEPVPQAKPRKVAAA [Compound 30], the “Activity” value is reported as “+”.
As for “Glu-Pro-Val-Pro-Gln (EPVPQ; printed: Glu-Pro-Val-Pro-Gln) [Compound 86]”, the “Activity” value was “* (* p < 0.05)”.
Turning to EPVPQAKPRK [Compound 38], the “Activity” value is given as “* (* p < 0.05)”.
Take EPVPQAKVPY [Compound 102]: the “Activity” value is on record as “+”.
Regarding SSEDIKEEPVPQAK [Compound 98], the “Activity” value is “** (** p < 0.01)”.
For the compound PAYKEPVPQAKPRKVAAQ [Compound 90], the “Activity” value is on record as “* (* p < 0.05)”.
Take KEPVPQAKPR[dK]VAAQ [Compound 71]: the “Activity” value is “+”.
For EPVPQAR [Compound 45], the “Activity” value was “#”.
Regarding KEPVAQAKPRKVAAQ [Compound 22], the “Activity” value was “+”.
Consider EPVPAAK [Compound 47], for which the “Activity” value is “+”.
As to KEGVGQAKPRKVAAQ [Compound 37], the “Activity” value is “+”.
Regarding “Glu-Pro-Val-Pro (EPVP; printed: Glu-Pro-Val-Pro) [Compound 9]”, the “Activity” value is on record as “** (** p < 0.01)”.
SSEDIKEPVPQ [Compound 99]: the “Activity” value was “* (* p < 0.05)”.
Same read-out and setting: the same measure for KEPVPQAKPRKVAAN [Compound 104]: “*** (*** p < 0.001)”; for EPVPQAA [Compound 48]: “** (** p < 0.01)”.
As for “Pro-Arg-Lys-Val (PRKV; printed: Pro-Arg-Lys-Val) [Compound 18]”, the “Activity” value is “−”.
Regarding KEGVPQAKGRKVAAQ [Compound 36], the “Activity” value is reported as “+”.
Same read-out and setting: the same measure for KEPVPQ [Compound 87]: “+”; for KEPVP[dQ]AKPRKVAAQ [Compound 66]: “* (* p < 0.05)”; for RKDVYKEPVPQAK [Compound 92]: “** (** p < 0.01)”.
On the same count and under the same terms, as for KQPVPQAKPRKVAAQ [Compound 105], the entry is “** (** p < 0.01)”.
With VPPKEPVPQAKPRKVAAQ [Compound 100], the “Activity” value is listed as “*** (*** p < 0.001)”.
With “Ala-Lys-Pro-Arg (AKPR; printed: Ala-Lys-Pro-Arg) [Compound 11]”, the “Activity” value was “+”.
PVPQAKP [Compound 60]: the “Activity” value is “−”.
Still for that read-out and setting: as for PRKVAAQ [Compound 5], the entry is “* (* p < 0.05)”; as for “Pro-Gln-Ala-Lys (PQAK; printed: Pro-Gln-Ala-Lys) [Compound 14]”, “+”.
For “D-Glu-Pro-Val-Pro-Gln-Ala-Lys ([dE]PVPQAK; also: acetate salt) [Compound 78]”, the “Activity” value was “+”.
Turning to KEPVPQAKPRKVAAE [Compound 103], the “Activity” value was “* (* p < 0.05)”.
Still for that read-out and setting: as for KEPVGQAKPRKVAAQ [Compound 32], the entry is “+”.
On to KEPVPQAKPRAVAAQ [Compound 28], for which the “Activity” value is “+”.
As to GPETAFLREPVPQAK [Compound 96], the “Activity” value is “*** (*** p < 0.001)”.
Same read-out and setting: the same measure for APVPQAK [Compound 46]: “+”.
For the compound KEPVGQAKGRKVAAQ [Compound 34], the “Activity” value is “* (* p < 0.05)”.
As to KEPVPQAKGRKVAAQ [Compound 33], the “Activity” value was “+”.
For KEGVGQAKGRKVAAQ [Compound 35], the “Activity” value is given as “−”.
Regarding “pyro-Glu-Leu-Lys-Glu-Pro-Val-Pro-Gln-Ala-Lys-Pro-Arg-Lys-Val-Ala-Ala-Gln ([pGlu]LKEPVPQAKPRKVAAQ; also: acetate salt) [Compound 89]”, the “Activity” value is “** (** p < 0.01)”.
On to KEPAPQAKPRKVAAQ [Compound 25], for which the “Activity” value is recorded as “** (** p < 0.01)”.
On the same count and under the same terms, the same measure for EP[dV]PQAK [Compound 80]: “+”.
Take “Lys-Glu-Pro-Val-Pro (KEPVP; printed: Lys-Glu-Pro-Val-Pro) [Compound 85]”: the “Activity” value was “* (* p < 0.05)”.
On the same count and under the same terms, the same measure for VPYKEPVPQAKPRKVAAQ [Compound 88]: “* (* p < 0.05)”.
Still for that read-out and setting: as for KEPVPQAAPRKVAAQ [Compound 24], the entry is “+”; as for KEPVPQAKPRK[dV]AAQ [Compound 72], “** (** p < 0.01)”.
Still for that read-out and setting: the same measure for EPVPQAKPRKVA [Compound 51]: “* (* p < 0.05)”; for PVPQAKPR [Compound 59]: “+”.
With KEPVPQAKPRKVAA[dQ] [Compound 75], the “Activity” value is on record as “* (* p < 0.05)”.
In the case of KEPVPAAKPRKVAAQ [Compound 23], the “Activity” value is recorded as “+”.
Consider “Val-Ala-Ala-Gln (VAAQ; printed: Val-Ala-Ala-Gln) [Compound 8]”, for which the “Activity” value is “+”.
Regarding RKDVYEPVPQAK [Compound 93], the “Activity” value is reported as “* (* p < 0.05)”.

The same assay, now with this note: 250, 500, 1000 μg/mL; Table 4.
With KEPVPQAK [Compound 4], the “Intestinal lumen area compared with the model control group (in words)” value is recorded as “significant statistical differences compared with the model control group”.
As for PRKVAAQ [Compound 5], the “Intestinal lumen area compared with the model control group (in words)” value is given as “significant statistical differences compared with the model control group”.
